Assays:
[1] = Kinetic turbidimetric aqueous solubility; format: physicochemical; conditions: aqueous buffer, kinetic from dmso stock; PBS buffer, final DMSO 2%, absorbance 620 nm; read-out: Kinetic Turbidimetric Aqueous Solubility at room temperature for 5 min
Protocol: Kinetic Turbidimetric Aqueous Solubility at room temperature for 5 min. […] Data was analyzed by fitting a four parameter sigmoidal function to the measured and normalized absorbances and AUC calculation providing access to Log S (decadic logarithm of the solubility).

[2] = target: T1, PqsR (Pseudomonas aeruginosa, UniProt Q9I4X0); assay: PqsR reporter gene assay in E. coli (β-galactosidase); format: cell-based
T1 construct: transfected with pEAL08-2 plasmid encoding pqsR under control of promoter tac; expressed in transfected cells; host or cells: Escherichia coli DH5alpha carrying pEAL08-2
Protocol: Inhibition of pqsR-dependent gene expression of test compounds was determined in an E. coli based β-galactosidase reporter gene assay. Escherichia coli DH5α was transfected with pEAL08-2 plasmid encoding pqsR under control of promoter tac and β-galactosidase reporter gene lacZ under control of promoter pqsA. Antagonistic effects of compounds were evaluated in the presence of/in competition to 50 nM PQS. A positive control was used to ensure the reliability of individual assays. First, PQS was diluted in methanol and added to the wells of a glass coated 96-deep-well plate, and the solvent was evaporated. Then, compounds were added in 5 μL DMSO to final concentrations of 0.001-10 μM. Overnight cultures of E. coli DH5a×pEAL08-2 were diluted 1:100 in LB medium with ampicillin (50 μg/ml) and incubated at 37° C. with shaking until it reached an OD600 of 0.2. Finally, 995 μL of culture was added to each well and the β-galactosidase activity was determined by ortho-nitrophenyl-β-galactoside conversion in permeabilized cells after a 2.5 h incubation period (37° C., 180 rpm). OD600, OD420, and OD550 were measured using POLARstar Omega (BMG Labtech, Ortenberg, Germany), and the activity was expressed as ratio of the slope of β-galactosidase activity between basal control (no PQS) and solvent control, IC50 values of antagonists were determined by variation of the concentration of the test compounds.

[3] = tested on: P. aeruginosa pyocyanin production; assay: Pyocyanin assay; format: cell-based, P. aeruginosa strain PA14; conditions: Pseudomonas aeruginosa, PA14, 16 h, read-out: IC50-value towards pyocyanin production
Protocol: Inhibition of P. aeruginosa pyocyanin production by compounds was determined photometrically as described before. In short, an overnight culture of PA14 in PPGAS medium was washed, diluted in medium to a start OD600 of 0.02, and incubated for 16 h (37° C., 200 rpm, relative humidity 75%) in the presence of test compounds. Then, cultures were extracted with chloroform and re-extracted with 0.2 M HCl. Protonated red colored pyocyanin was determined by measuring OD520 and normalizing to OD600.

[4] = Metabolic stability in mouse liver microsomes (MLM); format: in vitro ADME; conditions: 1 μM compound, 0.5 mg/mL MLM, 1 mM NADPH, 37° C., read-out: half-life (t1/2) towards MLM
Protocol: For the evaluation of phase I metabolic stability, the compound (1 μM) was incubated with 0.5 mg/mL MLM (Corning) and 1 mM NADPH at 37° C. for 0, 5, 10, 15 and 30 min. The metabolic stability of Verapamil, Diphenhydramine and Benzydamine (1 μM each) were determined in parallel to confirm the enzymatic activity of the MLM. The incubation was stopped by addition of 2 volumes of acetonitrile containing internal standard (1 μM Leucine Enkephaline). Samples were centrifuged (15 min, 3,500 rpm). Concentration of the remaining test compound at the different time points was analyzed by HPLC-MS/MS and used to determine half-life (t1/2).

T1 sequence (Q9I4X0 whole entry): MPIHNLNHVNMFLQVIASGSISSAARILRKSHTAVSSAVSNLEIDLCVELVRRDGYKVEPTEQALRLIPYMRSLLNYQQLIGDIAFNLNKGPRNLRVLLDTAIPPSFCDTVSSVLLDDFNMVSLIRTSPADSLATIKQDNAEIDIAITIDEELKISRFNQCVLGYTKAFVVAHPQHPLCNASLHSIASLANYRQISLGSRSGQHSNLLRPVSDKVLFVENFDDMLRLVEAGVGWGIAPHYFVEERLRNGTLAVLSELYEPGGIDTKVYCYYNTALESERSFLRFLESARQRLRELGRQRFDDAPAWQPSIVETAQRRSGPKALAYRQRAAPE

| SMILES | solubility at 5 min [1] [µM] | IC50 [2] [nM] | IC50 [3] [nM] | half-life at 1 µM [4] [h] |
| --- | --- | --- | --- | --- |
| FC(F)(F)c1cc(NCc2cn(-c3ccc(Oc4ccccc4)cc3)nn2)cc(-c2cn[nH]c2)n1 [Compound 01] | > 25 | 51 to 250 | 101 to 200 |  |
| CC(C)Oc1ccc(-n2cc(CNc3cc(-c4cn[nH]c4)nc(C(F)(F)F)c3)nn2)cc1Cl [Compound 07, N-((1-(3-Chloro-4-isopropoxyphenyl)-1H-1,2,3-triazol-4-yl)methyl)-2-(1H-pyrazol-4-yl)-6-(trifluoromethyl)pyridin-4-amine] | > 25 | ≤ 50 | ≤ 100 | 0.5 to 1 |
| FC(F)(F)c1cc(NCc2cn(-c3ccc(Oc4ccccc4)cc3)nn2)cc(-n2cncn2)n1 [Compound 03, N-((1-(4-Phenoxyphenyl)-1H-1,2,3-triazol-4-yl)methyl)-2-(1H-1,2,4-triazol-1-yl)-6-(trifluoromethyl)pyridin-4-amine] | > 25 | ≤ 50 | 201 to 500 | 1.02 to 1.67 |
| CC(C)Oc1ccc(-c2ncc(CNc3cc(-c4cnn(C)c4)nc(C(F)(F)F)c3)s2)cc1 [Compound 13, N-((2-(4-Isopropoxyphenyl)thiazol-5-yl)methyl)-2-(1-methyl-1H-pyrazol-4-yl)-6-(trifluoromethyl)pyridin-4-amine] | > 10 | 51 to 250 | 201 to 500 | 0.5 to 1 |
| Cn1cc(-c2cc(SCc3nc4cc(Oc5ccccc5)ccc4[nH]3)cc(C(F)(F)F)n2)cn1 [Compound 65, 2-(((2-(1-Methyl-1H-pyrazol-4-yl)-6-(trifluoromethyl)pyridin-4-yl)thio)methyl)-5-phenoxy-1H-benzo[d]imidazole] | > 10 | 51 to 250 |  |  |
| CC(C)Oc1ccc(-c2ncc(CNc3cc(-n4ccnc4)nc(C(F)(F)F)c3)s2)cc1Cl [Compound 16, N-((2-(3-Chloro-4-isopropoxyphenyl)thiazol-5-yl)methyl)-2-(1H-imidazol-1-yl)-6-(trifluoromethyl)pyridin-4-amine] |  | 51 to 250 | 101 to 200 | > 1.67 |
| FC(F)(F)c1cc(NCc2cn(-c3ccc(Oc4ccccc4)cc3)nn2)cc(-n2ccnc2)n1 [Compound 02, 2-(1H-Imidazol-1-yl)-N-((1-(4-phenoxyphenyl)-1H-1,2,3-triazol-4-yl)methyl)-6-(trifluoromethyl)pyridin-4-amine] | > 25 | ≤ 50 | 201 to 500 |  |
| CC(C)Oc1ccc(-c2ncc(CNc3cc(-c4cn[nH]c4)nc(C(F)(F)F)c3)s2)cc1 [Compound 11, N-((2-(4-Isopropoxyphenyl)thiazol-5-yl)methyl)-2-(1H-pyrazol-4-yl)-6-(trifluoromethyl)pyridin-4-amine] | > 10 | ≤ 50 | ≤ 100 | 0.5 to 1 |
| CC(C)Oc1ccc(-c2ncc(CNc3cc(-n4cncn4)nc(C(F)(F)F)c3)s2)cc1 [Compound 17, N-((2-(4-Isopropoxyphenyl)thiazol-5-yl)methyl)-2-(1H-1,2,4-triazol-1-yl)-6-(trifluoromethyl)pyridin-4-amine] | > 50 | 51 to 250 | ≤ 100 | 1.02 to 1.67 |
| CC(C)Oc1ccc(-c2ncc(CNc3cc(-n4cncn4)nc(C(F)(F)F)c3)s2)cc1Cl [Compound 18, N-((2-(3-Chloro-4-isopropoxyphenyl)thiazol-5-yl)methyl)-2-(7H-1,2,4-triazol-1-yl)-6-(trifluoromethyl)pyridin-4-amine] |  | ≤ 50 | ≤ 100 | > 1.67 |
| CC(C)Oc1ccc(-c2ncc(CNc3cc(C#N)nc(-c4cn[nH]c4)c3)s2)cc1 [Compound 12, 4-(((2-(4-Isopropoxyphenyl)thiazol-5 yl)methyl)amino)-6-(1H-pyrazol-4-yl)picolinonitrile] | > 10 | ≤ 50 | ≤ 100 | 0.5 to 1 |
| CC(C)Oc1ccc(-c2ncc(CNc3cc(-c4cn[nH]c4)nc(C(F)(F)F)c3)cn2)cc1Cl [Compound 48, N-((2-(3-Chloro-4-isopropoxyphenyl)pyrimidin-5-yl)methyl)-2-(1H-pyrazol-4-yl)-6-(trifluoromethyl)pyridin-4-amine] | > 25 | ≤ 50 | 101 to 200 | > 1.67 |
| CC(C)Oc1ccc(-c2ncc(CNc3cc(-c4cc[nH]n4)nc(C(F)(F)F)c3)s2)cc1 [Compound 14, N-((2-(4-Isopropoxyphenyl)thiazol-5-yl)methyl)-2-(1H-pyrazol-3-yl)-6-(trifluoromethyl)pyridin-4-amine] | > 10 | 51 to 250 | 201 to 500 | > 1.67 |
| Fc1ccccc1Oc1ccc(-n2cc(CNc3cc(-c4cn[nH]c4)nc(C(F)(F)F)c3)nn2)cc1 [Compound 04, N-((1-(4-(2-Fluorophenoxy)phenyl)-1H-1,2,3-triazol-4-yl)methyl)-2-(1H-pyrazol-4-yl)-6-(trifluoromethyl)pyridin-4-amine] | > 10 | ≤ 50 | 101 to 200 | 0.5 to 1 |
| CC(C)Oc1ccc(-n2cc(CNc3cc(Cl)nc(-c4cn[nH]c4)c3)nn2)cc1Cl [Compound 08, 2-Chloro-N-((1-(3-chloro-4-isopropoxyphenyl)-1H-1,2,3-triazol-4-yl)methyl)-6-(1H-pyrazol-4-yl)pyridin-4-amine] | > 25 | ≤ 50 | 201 to 500 |  |
| CC(C)Oc1ccc(-n2cc(CNc3cc(C#N)nc(-c4cn[nH]c4)c3)nn2)cc1Cl [Compound 09, 4-(((1-(3-Chloro-4-isopropoxyphenyl)-1H-1,2,3-triazol-4-yl)methyl)amino)-6-(1H-pyrazol-4-yl)picolinonitrile] | > 10 | ≤ 50 | 201 to 500 |  |
| CC(C)Oc1ccc(-c2ncc(CNc3cc(-n4ccnc4)nc(C(F)(F)F)c3)s2)cc1 [Compound 15, 2-(1H-Imidazol-1-yl)-N-((2-(4-isopropoxyphenyl)thiazol-5-yl)methyl)-6-(trifluoromethyl)pyridin-4-amine] | > 10 | ≤ 50 | ≤ 100 | 0.5 to 1 |
| CC(C)Oc1ccc(-n2cc(CNc3cc(-c4cccnc4)nc(C(F)(F)F)c3)nn2)cc1Cl [Compound 67, N-((1-(3-Chloro-4-isopropoxyphenyl)-1H-1,2,3-triazol-4-yl)methyl)-6-(trifluoromethyl)-[2,3′-bipyridin]-4-amine] |  | 51 to 250 |  |  |
| CC(C)Oc1ccc(-c2ncc(CNc3cc(-c4ccc(C#N)nc4)nc(C(F)(F)F)c3)s2)cc1 [Compound 68, 4-(((2-(4-Isopropoxyphenyl)thiazol-5-yl)methyl)amino)-6-(trifluoromethyl)-[2,3′-bipyridine]-6′-carbonitrile] | > 25 |  | 201 to 500 | > 1.67 |
| FC(F)(F)c1cc(SCc2nc3cc(Oc4ccccc4)ccc3[nH]2)cc(-n2cncn2)n1 [Compound 66, 2-(((2-(1H-1,2,4-Triazol-1-yl)-6-(trifluoromethyl)pyridin-4-yl)thio)methy)-5-phenoxy-1H-benzo[d]imidazole] | > 10 | ≤ 50 | 101 to 200 |  |
| CC(C)Oc1ccc(-c2ncc(CNc3cc(-n4ccnc4)nc(C(F)(F)F)c3)cn2)cc1Cl [Compound 30, N-((2-(3-Chloro-4-Isopropoxyphenyl)pyrimidin-5-yl)methyl)-2-(1H-imidazol-1-yl)-6-(trifluoromethyl)pyridin-4-amine] | > 10 |  | 101 to 200 | > 1.67 |

From patent US20230106506A1, “NOVEL PqsR INVERSE AGONISTS” (Helmholtz-Zentrum Fur Infektionsforschung GmbH, priority 2020, published 2023)
